According to patent publication US10131639B2, “Formulations of 2-(tert-butylamino)-4-((1R,3R,4R)-3-hydroxy-4methylcyclohexylamino)-pyrimidine-5-carboxamide” (Signal Pharmaceuticals, LLC, priority 2014, dated 2018):
Where two headings read alike, the source gives them in different places.

What was measured:
[1] = Phase 1 study Part 2: single-dose plasma pharmacokinetics, relative bioavailability (tablet vs AIC) and food effect in healthy subjects; assay type: in vivo, human; conditions: for AUC(0-inf) / Cmax / Vd/F / half-life / Tmax / AUC(0-t): human, plasma, po, 200 mg; for Vd/F: read-out: Vz/F (apparent total volume of distribution)
Experimental: Part 2 was an open label, randomized, crossover study with three periods. The study consisted of a screening phase (Days −21 to −2), baseline (Day −1), three treatment/assessment periods, and a follow up phone call.
Twelve eligible subjects reported to the study center on Day −1 of Period 1 for confinement and baseline assessments.
All subjects fasted overnight for at least 10 hours prior to dosing. For Treatment F, subjects received a standard high-fat breakfast 30 minutes before dosing. Dosing occurred 30 minutes (±5 minutes) after serving the meal.
Treatments D and E were administered in the morning following an overnight fast of at least 10 hours. Subjects who received Treatments D and E (fasted) continued to fast for at least 4 hours after dosing. For Treatment F, subjects received a standard high fat (approximately 50% of the total caloric content of the meal), high calorie (approximately 800 to 1000 calories) breakfast 30 minutes before dosing. The meal derived approximately 150, 250, and 500 to 600 calories from protein, carbohydrates, and fat, respectively. Subjects consumed the entire meal within 30 minutes of serving. Dosing occurred 30 minutes (±5 minutes) after serving the meal.
Actual sampling times were used in the calculation of PK parameters.
AUCt: AUC from time zero to the last quantifiable concentration.
AUC∞: AUC from time zero extrapolated to infinity.
Cmax: Maximum observed plasma concentration.
CL/F: Apparent total plasma clearance when dosed orally.
Vz/F: Apparent total volume of distribution when dosed orally.
t1/2: Terminal phase elimination half-life.
Geometric least squares (LS) means, ratio (fed/fasted) and 90% confidence intervals (CIs) of the ratio of geometric LS means were from an analysis of variance (ANOVA) model with treatment, period, and sequence as fixed effects, and subject nested within sequence as a random effect on the natural log-transformed pharmacokinetics.
The median, median difference (fed-fasted), and 90% confidence interval of the median difference were from the Hodges-Lehmann estimate.

[2] = Solubility in water and SGF (24 hours, ambient temperature, HPLC/UV); assay type: physicochemical; conditions: for solubility at 24 h: ambient temperature
Experimental: Solubility in Water and SGF: A portion of the sample was weighed into a 2 mL clear HPLC vial. […] The sample was removed from the shaker and pH measurement was performed using a calibrated pH meter. Then a portion of the sample was filtered using […] Nylon-membraned centrifuge tube filter at 14000 RPM for 5 min. The filtrate was analyzed using HPLC/UV with appropriate dilution. The filtered solid residues were analyzed using XRPD.
For solubility in SGF, the samples were prepared and assayed in the same procedures as mentioned above.

[3] = single oral dose of 200 mg tablet
[4] = measured after 24 hours shaking

C[C@@H]1CC[C@@H](Nc2nc(NC(C)(C)C)ncc2C(N)=O)C[C@H]1O [Compound 1, 2-(tert-butylamino)-4-((1R,3R,4R)-3-hydroxy-4-methylcyclohexylamino)-pyrimidine-5-carboxamide]
AUC(0-inf) ([1]; Treatment D: 2×100 mg as AIC, single oral dose, fasted, geometric mean (geometric CV%), N=12, read-out: AUC∞): 13100 ng·h/mL | Cmax ([1]; Treatment D: 2×100 mg as AIC, single oral dose, fasted, geometric mean (geometric CV%), N=12, read-out: Cmax): 2080 ng/mL | Vd/F ([1]; Treatment D: 2×100 mg as AIC, single oral dose, fasted, geometric mean (geometric CV%), N=12): 447 L | half-life ([1]; Treatment D: 2×100 mg as AIC, single oral dose, fasted, geometric mean (geometric CV%), N=12, read-out: t1/2 (terminal elimination half-life) (converted)): 1220 min | Tmax ([1]; Treatment D: 2×100 mg as AIC, single oral dose, fasted, median (minimum, maximum), N=12, read-out: Tmax): 2 h | AUC(0-t) ([1]; Treatment E: 1×200 mg formulated tablet, single oral dose, fasted, N=12, read-out: AUCt, Geometric Mean (ANOVA LS mean)): 11900 ng·h/mL | AUC(0-inf) ([1]; Treatment E: 1×200 mg formulated tablet, single oral dose, fasted, N=12, read-out: AUC∞, Geometric Mean (ANOVA LS mean)): 12200 ng·h/mL | Cmax ([1]; Treatment E: 1×200 mg formulated tablet, single oral dose, fasted, N=12, read-out: Cmax, Geometric Mean (ANOVA LS mean)): 1730 ng/mL | Tmax ([1]; Treatment E: 1×200 mg formulated tablet, single oral dose, fasted, N=12, read-out: tmax, Median (Hodges-Lehmann estimate)): 2 h | AUC(0-t) ([1]; Treatment E: 1×200 mg formulated tablet, single oral dose, fasted, geometric mean (geometric CV%), N=12, read-out: AUCτ (time 0 to the last quantifiable concentration)): 11900 ng·h/mL | AUC(0-inf) ([1]; Treatment E: 1×200 mg formulated tablet, single oral dose, fasted, geometric mean (geometric CV%), N=12, read-out: AUC∞): 12200 ng·h/mL | Cmax ([1]; Treatment E: 1×200 mg formulated tablet, single oral dose, fasted, geometric mean (geometric CV%), N=12, read-out: Cmax): 1730 ng/mL | Vd/F ([1]; Treatment E: 1×200 mg formulated tablet, single oral dose, fasted, geometric mean (geometric CV%), N=12): 477 L | half-life ([1]; Treatment E: 1×200 mg formulated tablet, single oral dose, fasted, geometric mean (geometric CV%), N=12, read-out: t1/2 (terminal elimination half-life) (converted)): 1210 min | Tmax ([1]; Treatment E: 1×200 mg formulated tablet, single oral dose, fasted, median (minimum, maximum), N=12, read-out: Tmax): 2 h | AUC(0-t) ([1]; Treatment F: 1×200 mg formulated tablet, single oral dose, fed, N=12, read-out: AUCt, Geometric Mean (ANOVA LS mean)): 12000 ng·h/mL | AUC(0-inf) ([1]; Treatment F: 1×200 mg formulated tablet, single oral dose, fed, N=12, read-out: AUC∞, Geometric Mean (ANOVA LS mean)): 12300 ng·h/mL | Cmax ([1]; Treatment F: 1×200 mg formulated tablet, single oral dose, fed, N=12, read-out: Cmax, Geometric Mean (ANOVA LS mean)): 1840 ng/mL | Tmax ([1]; Treatment F: 1×200 mg formulated tablet, single oral dose, fed, N=12, read-out: tmax, Median (Hodges-Lehmann estimate)): 3 h | AUC(0-inf) ([1]; Treatment F: 1×200 mg formulated tablet, single oral dose, fed, geometric mean (geometric CV%), N=12, read-out: AUC∞): 12300 ng·h/mL | Cmax ([1]; Treatment F: 1×200 mg formulated tablet, single oral dose, fed, geometric mean (geometric CV%), N=12, read-out: Cmax): 1840 ng/mL | Vd/F ([1]; Treatment F: 1×200 mg formulated tablet, single oral dose, fed, geometric mean (geometric CV%), N=12): 510 L | half-life ([1]; Treatment F: 1×200 mg formulated tablet, single oral dose, fed, geometric mean (geometric CV%), N=12, read-out: t1/2 (terminal elimination half-life) (converted)): 1300 min | Tmax ([1]; Treatment F: 1×200 mg formulated tablet, single oral dose, fed, median (minimum, maximum), N=12, read-out: Tmax): 3 h | half-life ([1]; following a single oral dose of 200 mg, read-out: terminal elimination t1/2 (converted)): ~1200 min | correlation of plasma concentrations with whole blood concentration ([1]; single 200 mg dose, Treatment D (FIG. 106)): highly correlated | effect of food on the PK of the tablet formulation ([1]; single oral 200 mg tablet, healthy subjects): no effect | AUCt and AUC∞ under fed compared to fasted conditions [1, 3]: equivalent | Cmax higher in the fed state compared to the fasted state [1, 3]: ~6% | pH of the solubility sample in SGF [2, 4]: (pH 2.20) | pH of the solubility sample in water [2, 4]: (pH 8.96) | solubility at 24 h ([2]; pH 2.2, thermodynamic from solid, simulated gastric fluid without pepsin, read-out: Solubility in SGF (equiv. to free base)): 7170 µg/mL | solubility at 24 h ([2]; pH 8.96, thermodynamic from solid, water, read-out: Solubility in water (equiv. to free base)): 18 µg/mL
